Like-named read-outs stand apart in the source and are kept apart here. Values belong to the compound of their own block, whether it stands above or below them.
Columns and labels:
[1] = FDA drug labelling score, scale 1-8; ref Chen 2011; cited from earlier work
[2] = cited from earlier work; for DILI severity category (Chen et al. [2016]) / DILI severity category (Chen 2016): ref Chen et al. 2016; for DILI severity category (Chen 2016): human DILI classification, LTKB DILIrank
HepG2 cells = settings: In vitro Assay; ref Tolosa 2012; cited from earlier work
[3] = cited from earlier work; for Assigned DILI category: Chen et al. 2016 or literature alignment, ref Chen et al. 2016
hLiMTs [4] = experiment: Combined HCI (HCS) and cellular ATP 3D assay in hLiMTs; settings: for AC50 / minimal effective concentration: Homo sapiens; for DILI prediction hLiMTs (HCS-MEC): Microtissue model structural based (HCI), combined HCS and ATP, MEC < 25 × Cmax.tot cut-off; for hLiMTs <25x Avg Cmax ATP / hLiMTs <100x Avg Cmaxu ATP: ATP endpoint; for hLiMTs <25x Avg Cmax ATP / hLiMTs <25x Avg Cmax HCS / hLiMTs <25x Avg Cmax All: cut-off <25x Avg Cmax; for hLiMTs <100x Avg Cmaxu ATP / hLiMTs <100x Avg Cmaxu HCS / hLiMTs <100x Avg Cmaxu All: cut-off <100x Avg Cmaxu; for hLiMTs <25x Avg Cmax HCS / hLiMTs <100x Avg Cmaxu HCS: HCS endpoints; for hLiMTs <25x Avg Cmax All: all endpoints (ATP and HCS); for hLiMTs Cmax max All / hLiMTs Cmax min All / hLiMTs <10 uM All / hLiMTs <100x Avg Cmaxu All: all endpoints; for hLiMTs Cmax max All: Cmax max used; for hLiMTs Cmax min All: Cmax min used; for hLiMTs <10 uM All: cut-off <10 uM
[5] = system: HepG2 C3A spheroid, BSEP, Glu/Gal in HepG2 cells, bioactivation; settings: cited from earlier work; for Bayesian Machine Learning DILI prediction, Williams (2019): Bayesian modeling, ref Williams et al. 2019; for Bayesian Machine Learning: ref Williams 2019
[6] = read-out: Human plasma Cmax; total plasma Cmax.tot, median of 9 literature references; cited from earlier work
HepaRG spheroids = experiment: Combined HCI (HCS) and cellular ATP 3D assay in HepaRG spheroids; settings: for HepaRG <25x Avg Cmax ATP / HepaRG <100x Avg Cmaxu ATP: ATP endpoint; for HepaRG <25x Avg Cmax ATP / HepaRG <25x Avg Cmax HCS / HepaRG <25x Avg Cmax All: cut-off <25x Avg Cmax; for HepaRG <100x Avg Cmaxu ATP / HepaRG <100x Avg Cmaxu HCS / HepaRG <100x Avg Cmaxu All: cut-off <100x Avg Cmaxu; for HepaRG <25x Avg Cmax HCS / HepaRG <100x Avg Cmaxu HCS: HCS endpoints; for HepaRG <25x Avg Cmax All: all endpoints (ATP and HCS); for HepaRG Cmax max All / HepaRG Cmax min All / HepaRG <10 uM All / HepaRG <100x Avg Cmaxu All: all endpoints; for HepaRG Cmax max All: Cmax max used; for HepaRG Cmax min All: Cmax min used; for HepaRG <10 uM All: cut-off <10 uM; for DILI prediction HepaRG spheroids (HCS-MEC): Microtissue model structural based (HCI), combined HCS and ATP, MEC < 25 × Cmax.tot cut-off; for AC50 / minimal effective concentration: Homo sapiens; for HepaRG <25x Avg Cmax ATP / HepaRG <100x Avg Cmaxu ATP / HepaRG <25x Avg Cmax HCS / HepaRG <100x Avg Cmaxu HCS / HepaRG <25x Avg Cmax All / HepaRG Cmax max All / HepaRG Cmax min All / HepaRG <10 uM All / HepaRG <100x Avg Cmaxu All / AC50 / minimal effective concentration: HepaRG
PHH = settings: cited from earlier work; for PHH/100uM, Proctor (2017): IC50 threshold 100 µM; for PHH ATP <100uM: In vitro Assay, ref Proctor 2017
hLiMTs [7] = settings: cited from earlier work; for hLiMTs ATP <100uM: In vitro Assay, ref Proctor 2017; for hLiMTs/100uM, Proctor (2017): IC50 threshold 100 µM
[8] = system: isolated mouse liver mitochondria; settings: In vitro Assay; ref Porceddu 2012; cited from earlier work
PHH spheroids = settings: cited from earlier work
human hepatocytes = settings: cited from earlier work
[9] = system: HepG2 cells, primary human hepatocytes; settings: In vitro Assay; ref Garside 2014; cited from earlier work
[10] = system: THLE or HepG2 cells, isolated mitochondria, BSEP; settings: cited from earlier work
[11] = plasma free fraction; cited from earlier work
[12] = human DILI severity, ref Chen et al.
[13] = 2D PHH, ATP, ref Proctor et al. 2017
[14] = hLiMTs, ATP, ref Proctor et al. 2017
[15] = Modeled in vitro assays (cytotoxicity, mitochondrial dysfunction, BSEP), ref Aleo et al. 2019

SMILES: C[C@H]1c2cccc(O)c2C(=O)C2=C(O)[C@]3(O)C(=O)C(C(N)=O)=C(O)[C@@H](N(C)C)[C@@H]3[C@@H](O)[C@@H]21 [doxycycline]
- DILI Score (FDA) (1-8) [1]: 3
- DILI +VE (5-8), DILI -VE (-4) ([2]; binary in vivo human DILI call, ref Chen 2016): +VE
- DILI severity category ([2]; human DILI, LTKB DILIrank category, ref Chen 2016): vLess-DILI-Concern
- Structural based (HCI) (HepG2 cells): +VE
- In vivo DILI ([3]; ref Tolosa 2012): +VE

- hLiMTs <25x Avg Cmax ATP (hLiMTs [4]): -ve
- hLiMTs <100x Avg Cmaxu ATP (hLiMTs [4]): -ve
- hLiMTs <25x Avg Cmax HCS (hLiMTs [4]): -ve
- hLiMTs <100x Avg Cmaxu HCS (hLiMTs [4]): -ve
- hLiMTs <25x Avg Cmax All (hLiMTs [4]): -ve
- hLiMTs Cmax max All (hLiMTs [4]): -ve
- hLiMTs Cmax min All (hLiMTs [4]): -ve
- hLiMTs <10 uM All (hLiMTs [4]): -ve
- hLiMTs <100x Avg Cmaxu All (hLiMTs [4]): -ve
- HepaRG <25x Avg Cmax ATP (HepaRG spheroids): -ve
- HepaRG <100x Avg Cmaxu ATP (HepaRG spheroids): -ve
- HepaRG <25x Avg Cmax HCS (HepaRG spheroids): -ve
- HepaRG <100x Avg Cmaxu HCS (HepaRG spheroids): -ve
- HepaRG <25x Avg Cmax All (HepaRG spheroids): -ve
- HepaRG Cmax max All (HepaRG spheroids): -ve
- HepaRG Cmax min All (HepaRG spheroids): -ve
- HepaRG <10 uM All (HepaRG spheroids): -ve
- HepaRG <100x Avg Cmaxu All (HepaRG spheroids): -ve
SMILES: Cc1c(-c2ccccc2)oc2c(C(=O)OCCN3CCCCC3)cccc2c1=O [flavoxate]
- DILI severity category (Chen et al. [2016]) ([2]; LTKB DILIrank category): No
- DILI severity category (Chen 2016) [2]: No
- DILI severity category [2, 12]: No
- DILI +VE (5-8), DILI -VE (-4) ([2]; ref Chen 2016): -VE
- DILI severity category ([2]; ref Chen 2016): vNo-DILI-Concern
- AC50 (hLiMTs [4]; read-out: ATP endpoint AC50): 127 µM
- minimal effective concentration (hLiMTs [4]; read-out: ATP endpoint MEC): 111 µM
- DILI prediction hLiMTs (HCS-MEC) (hLiMTs [4]): -VE
- Bayesian Machine Learning DILI prediction, Williams (2019) [5]: -VE
- Bayesian Machine Learning [5]: -VE
- Assigned DILI category [3]: 1
- In vivo DILI ([3]; ref Proctor 2017): -VE
- In vivo DILI ([3]; ref Williams 2019): -VE
- Cmax [6]: 1.79 µM
- DILI prediction HepaRG spheroids (HCS-MEC) (HepaRG spheroids): -VE
- PHH/100xCmax, Proctor (2017) (PHH; 2D PHH, ATP, IC50 < 100 × Cmax.tot, ref Proctor et al. 2017): -VE
- PHH/100uM, Proctor (2017) (PHH; [13]): -VE
- PHH ATP <100uM (PHH): -VE
- hLiMTs ATP <100uM (hLiMTs [7]): -VE
- hLiMTs/100xCmax, Proctor (2017) (hLiMTs [7]; hLiMTs, ATP, IC50 < 100 × Cmax.tot, ref Proctor et al. 2017): -VE
- hLiMTs/100uM, Proctor (2017) (hLiMTs [7]; [14]): -VE

- hLiMTs <25x Avg Cmax ATP (hLiMTs [4]): +ve
- hLiMTs <100x Avg Cmaxu ATP (hLiMTs [4]): +ve (<100x Avg Cmaxu)
- hLiMTs <25x Avg Cmax HCS (hLiMTs [4]): +ve
- hLiMTs <100x Avg Cmaxu HCS (hLiMTs [4]): +ve (<100x Avg Cmaxu)
- hLiMTs <25x Avg Cmax All (hLiMTs [4]): +ve
- hLiMTs Cmax max All (hLiMTs [4]): +ve
- hLiMTs Cmax min All (hLiMTs [4]): +ve
- hLiMTs <10 uM All (hLiMTs [4]): +ve (<10 uM)
- hLiMTs <100x Avg Cmaxu All (hLiMTs [4]): +ve (<100x Avg Cmaxu)
- HepaRG <25x Avg Cmax ATP (HepaRG spheroids): +ve
- HepaRG <100x Avg Cmaxu ATP (HepaRG spheroids): +ve (<100x Avg Cmaxu)
- HepaRG <25x Avg Cmax HCS (HepaRG spheroids): +ve
- HepaRG <100x Avg Cmaxu HCS (HepaRG spheroids): +ve (<100x Avg Cmaxu)
- HepaRG <25x Avg Cmax All (HepaRG spheroids): +ve
- HepaRG Cmax max All (HepaRG spheroids): +ve
- HepaRG Cmax min All (HepaRG spheroids): +ve
- HepaRG <10 uM All (HepaRG spheroids): +ve (<10 uM)
- HepaRG <100x Avg Cmaxu All (HepaRG spheroids): +ve (<100x Avg Cmaxu)
SMILES: C1CCC(C(CC2CCCCN2)C2CCCCC2)CC1 (stereo not shown) [perhexiline]
- in vitro data EC2<=1x Cmax [8]: +VE
- in vitro data EC20<=2uM [8]: +VE
- DILI severity category (Chen et al. [2016]) ([2]; LTKB DILIrank category): Most
- DILI severity category (Chen 2016) [2]: Most
- DILI severity category [2, 12]: Most
- DILI +VE (5-8), DILI -VE (-4) ([2]; ref Chen 2016): +VE
- DILI severity category ([2]; ref Chen 2016): vMost-DILI-Concern
- AC50 (hLiMTs [4]; read-out: ATP endpoint AC50): 1.69 µM
- minimal effective concentration (hLiMTs [4]; read-out: ATP endpoint MEC): 1.49 µM
- AC50 (hLiMTs [4]; read-out: HCS endpoint AC50): 1.75 µM
- minimal effective concentration (hLiMTs [4]; read-out: HCS endpoint MEC): 0.354 µM
- DILI prediction hLiMTs (HCS-MEC) (hLiMTs [4]): +VE (MEC < 25 × Cmax.tot cut-off)
- Bayesian Machine Learning DILI prediction, Williams (2019) [5]: +VE
- Bayesian Machine Learning ([5]; In vitro Assay): +VE
- Assigned DILI category [3]: 3
- In vivo DILI ([3]; […]): +VE
- In vivo DILI ([3]; ref Aleo 2019): +VE
- In vivo DILI ([3]; ref Garside 2014): +VE
- In vivo DILI ([3]; ref Porceddu 2012): +VE
- In vivo DILI ([3]; ref Proctor 2017): +VE
- In vivo DILI ([3]; ref Vorrink 2018): +VE
- In vivo DILI ([3]; ref Williams 2019): +VE
- In vivo DILI ([3]; ref Xu 2008): +VE
- hLiMTs ATP <20 x Cmax (PHH spheroids; In vitro Assay, ref Vorrink 2018): +VE (IC20 < 20 × Cmax.tot cut-off)
- DILI in vitro assay prediction, Vorrink (2018) (PHH spheroids; PHH spheroids, ATP, 14 days, IC20 < 20 × Cmax.tot, ref Vorrink et al. 2018): +VE (IC20 < 20 × Cmax.tot cut-off)
- Structural based (HCI) (human hepatocytes; In vitro Assay, ref Xu 2008): +VE
- DILI in vitro assay prediction, Xu (2008) (human hepatocytes; Structural based (HCI), human hepatocytes, ref Xu et al. 2008): +VE
- AC50 (HepaRG spheroids; read-out: ATP endpoint AC50): 3.69 µM
- minimal effective concentration (HepaRG spheroids; read-out: ATP endpoint MEC): 1.76 µM
- AC50 (HepaRG spheroids; read-out: HCS endpoint AC50): 6.32 µM
- minimal effective concentration (HepaRG spheroids; read-out: HCS endpoint MEC): 0.693 µM
- DILI prediction HepaRG spheroids (HCS-MEC) (HepaRG spheroids): +VE (MEC < 25 × Cmax.tot cut-off)
- Cluster 1-6 +VE Assay [9]: +VE
- PHH/100uM, Proctor (2017) (PHH; [13]): +VE (IC50 threshold of 100 µM)
- PHH ATP <100uM (PHH): +VE (IC50 threshold of 100 µM)
- Partition Hybrid HRM Score ([10]; In vitro Assay, ref Aleo 2019): +VE
- Ro2 Hybrid HRM Score ([10]; In vitro Assay, ref Aleo 2019): +VE
- Partition Hybrid HRM Score ≥4, Aleo (2019) [10, 15]: +VE (Partition Hybrid HRM Score ≥4)
- Partition Hybrid HRM Score ≥8, Aleo (2019) [10, 15]: +VE (Partition Hybrid HRM Score ≥8)
- Rule of Two hybrid HRM Score ≥3, Aleo (2019) [10, 15]: +VE (Rule of Two hybrid HRM Score ≥3)
- Rule of Two hybrid HRM Score ≥8, Aleo (2019) [10, 15]: +VE (Rule of Two hybrid HRM Score ≥8)
- fu [11]: 0.100
- hLiMTs ATP <100uM (hLiMTs [7]): +VE (IC50 threshold of 100 µM)
- hLiMTs/100uM, Proctor (2017) (hLiMTs [7]; [14]): +VE (IC50 threshold of 100 µM)

— article PMC7395068, “The evolution of strategies to minimise the risk of human drug-induced liver injury (DILI) in drug discovery and development” (Archives of Toxicology, 2020)
